The nature of one data set: physchem. Conditions: buffer, pH 7.4.
A short description of data set [1]: Ratio of unbound brain to plasma concentration in iv dosed rat administered as 4 hrs infusion by equilibrium dialysis method. In kind it is ADME, organism-based. The following applies: brain and plasma, read-out: K(p,uu,brain).
Data set [2] in a line: Drug metabolism in human hepatocytes assessed as CYP450-mediated metabolite formation at 1 uM up to 240 mins by LC-MS/MS analysis. Type of data set: ADME, cell-based. Conditions: 4 h.
Data set [3] is described as follows: in vitro. Conditions: human, hepatocytes.
A short description of data set [4]: in vitro. The following applies: human, liver microsomes.
The nature of data set [5]: in vitro. The following applies: dog, MDCK.
The nature of data set [6]: Oral bioavailability in rat. Conditions: in vivo. In kind it is ADME, organism-based.
Data set [7] can be described thus: Clearance in iv dosed rat administered as 4 hrs infusion. Type of data set: ADME, organism-based. Conditions: in vivo.

Here are results for one molecule from ChEMBL document CHEMBL4190406, “Discovery of Potent, Selective, and Peripherally Restricted Pan-Trk Kinase Inhibitors for the Treatment of Pain” (J Med Chem, 2018).

For the molecule `Cn1cnc(-c2ccc(OC3CCN(C(=O)Cc4ccc(OC(F)(F)F)cc4)CC3)c(C(N)=O)c2)c1`, the logD in the data set “physchem” came out at 2.9. Further, the Kp uu at 4 h in data set [1] was 0.0065. Also, in data set [2], the Drug metabolism entry is recorded as “Metabolite_Detected”. In the data set “in vitro [3]”, the intrinsic metabolic clearance (hepatocyte CLint) at 4 h, 1 µM was determined as 8 µL/min/1e6 cells. This molecule had a microsomal CLint at 1 h, 1 µM in the data set “in vitro [4]” of under 8 µL/min/mg. This molecule came in with a Papp A→B in “in vitro [5]” of 10 ×10⁻⁶ cm/s. This molecule came in with a bioavailability in data set [6] of 45%. Besides, the clearance in data set [7] turned out to be 38 mL/min/kg.
